From patent US20060178323A1, “Methods for the treatment of chronic pain and compositions therefor” (priority 2002, published 2006)

Legend:
[1] = system: mechanical hyperalgesia in the Seltzer model of neuropathic pain in the rat; experiment: Seltzer model, established neuropathic hyperalgesia, repeated administration of Compound A; format: in vivo; settings: for ipsilateral paw withdrawal threshold: 30 mg/kg orally twice daily for 10 days starting 7 days after ligation
Excerpt: (§1) Two animal models of chronic neuropathic pain may be used that involve some form of peripheral nerve damage. In the Seltzer model (Seltzer et al. (1990) Pain 43: 205-218) rats are anaesthetised and a small incision made mid-way up one thigh (usually the left) to expose the sciatic nerve. The nerve is carefully cleared of surrounding connective tissues at a site near the trochanter just distal to the point at which the posterior biceps semitendinosus nerve branches off the common sciatic nerve. A 7-0 silk suture is inserted into the nerve with a ⅜ curved, reversed-cutting mini-needle, and tightly ligated so that the dorsal ⅓ to ½ of the nerve thickness is held within the ligature. The muscle and skin are closed with sutures and clips and the wound dusted with antibiotic powder. In sham animals the sciatic nerve is exposed but not ligated and the wound closed as in nonsham animals.
(§2) In all chronic pain models (inflammatory and neuropathic) mechanical hyperalgesia is assessed by measuring paw withdrawal thresholds of both hindpaws to an increasing pressure stimulus using an Analgesymeter (Ugo-Basile, Milan). Mechanical allodynia is assessed by measuring withdrawal thresholds to non-noxious mechanical stimuli applied with von Frey hairs to the plantar surface of both hindpaws. Thermal hyperalgesia is assessed by measuring withdrawal latencies to a noxious thermal stimulus applied to the underside of each hindpaw. With all models, mechanical hyperalgesia and allodynia and thermal hyperalgesia develop within 1-3 days following surgery and persist for at least 50 days. For the assays described herein, drugs may be applied before and after surgery to assess their effect on the development of hyperalgesia, particularly approximately 14 days following surgery, to determine their ability to reverse established hyperalgesia.
(§3) The percentage reversal of hyperalgesia is calculated as follows: [formula] In the experiments disclosed herein, Wistar rats (male) are employed in pain models described above. Rats weigh approximately 120-140 grams at the time of surgery. All surgery is performed under enflurane/O2 inhalation anaesthesia. In all cases the wound is closed after the procedure and the animal allowed to recover. In all pain models employed, after a few days in all but the sham operated animals, a marked mechanical and thermal hyperalgesia and allodynia develops in which there is a lowering of pain threshold and an enhanced reflex withdrawal response of the hind-paw to touch, pressure or thermal stimuli. […] In the majority of animals the toes of the affected hind paw are held together and the foot turned slightly to one side; in some rats the toes are also curled under. The gait of the ligated rats varies, but limping is uncommon. […] The rats tend to be very sensitive to touch and may vocalise. Otherwise the general health an condition of the rats is good.
(§4) The effect of Compound A on mechanical hyperalgesia and allodynia is examined in the Seltzer model of neuropathic pain in the rat (Seltzer et al, 1990) as described above. With this model mechanical hyperalgesia and allodynia is induced in the ipsilateral (ligated) hindpaw approximately 1 day following surgery and persists for some weeks. Mechanical hyperalgesia is assessed by measuring paw withdrawal thresholds of both hindpaws to an increasing pressure stimulus using an Analgesymeter (Ugo-Basile, Milan). Mechanical allodynia is assessed by measuring withdrawal thresholds to non-noxious mechanical stimuli applied with von Frey hairs to the plantar surface of both hindpaws.
Inhibition of MMP7 may also reduce established mechanical hyperalgesia. 7 days following ligation ipsilateral paw withdrawal thresholds are reduced to approximately 65 g compared to contralteral readings of approximately 100 g, indicating mechanical hyperalgesia. Compound A (3 and 30 mg/kg) or vehicle (20% cremaphor/water) is then administered orally twice daily for 10 days. […]

[2] = system: mechanical hyperalgesia in the Seltzer model of neuropathic pain in the rat; experiment: Seltzer model, development of mechanical hyperalgesia, repeated administration of Compound A; format: in vivo
Excerpt: as §1, §2, §3, §4
Experimental Protocol: The effect of Compound A on the development of mechanical hyperalgesia is tested by administering the compound or vehicle (20% cremaphor/water) orally twice daily for 7 days starting on the day of surgery. Prior to surgery paw withdrawal thresholds of ipsilateral (ligated) and contralateral (non-ligated) paws are approximately 100 g. […]

CC[C@H](C(=O)NO)[C@H](C(=O)N1CCCC[C@H]1C(=O)NC(C)C)c1ccc(Cl)cc1 [Compound A, (S)-1-[(2S,3S)-2-(4-Chloro-phenyl)-3-hydroxycarbamoyl-pentanoyl]-piperidine-2-carboxylic acid isopropylamide]
ipsilateral paw withdrawal threshold ([1]; day 3 of study): 71.7 ± 2.1 g
ipsilateral paw withdrawal threshold ([1]; day 4 of study): 78.3 ± 4.8 g
ipsilateral paw withdrawal threshold ([1]; day 5 of study): 84.2 ± 2.4 g
ipsilateral paw withdrawal threshold ([1]; day 6 of study): 84.2 ± 4.4 g
ipsilateral paw withdrawal threshold ([1]; day 7 of study): 83.3 ± 5.4 g
ipsilateral paw withdrawal threshold ([1]; day 8 of study): 83.3 ± 2.5 g
ipsilateral paw withdrawal threshold ([1]; day 9 of study): 79.2 ± 3.0 g
ipsilateral paw withdrawal threshold ([1]; day 10 of study): 85.0 ± 2.6 g
ipsilateral paw withdrawal threshold ([1]; day 11 of study): 82.5 ± 3.4 g
ipsilateral paw withdrawal threshold ([1]; day 12 of study): 80.8 ± 2.4 g
ipsilateral paw withdrawal threshold ([1]; day 13 of study): 80.0 ± 2.6 g
ipsilateral paw withdrawal threshold ([1]; day 14 of study): 78.3 ± 1.7 g
ipsilateral paw withdrawal threshold ([1]; day 15 of study): 78.3 ± 2.5 g
ipsilateral paw withdrawal threshold ([1]; day 18 of study): 77.5 ± 2.1 g
ipsilateral paw withdrawal threshold ([1]; day 21 of study): 81.7 ± 2.5 g
ipsilateral paw withdrawal threshold ([1]; day 23 of study): 77.5 ± 2.1 g
ipsilateral paw withdrawal threshold ([1]; predose): 66.7 ± 2.1 g
ipsilateral paw withdrawal thresholds compared to vehicle treated animals ([1]; after 4 days of drug treatment, 3 and 30 mg/kg orally twice daily): significant increase in ipsilateral paw withdrawal thresholds
persistence of increased thresholds following cessation of compound administration ([1]; at the higher dose (30 mg/kg)): up to 2 weeks
ipsilateral withdrawal thresholds versus vehicle treated animals ([2]; 3 days after the end of compound administration): remain elevated above those of vehicle treated animals
withdrawal thresholds of contralateral paws ([2]; contralateral (non-ligated) paw, following surgery, vehicle or compound administration, throughout the experiment): do not significantly change
Paw withdrawal threshold ([2]; ipsilateral paw, 3 mg/kg orally twice daily for 7 days from day of surgery, day 1 of treatment): 72.5 ± 2.8 g
Paw withdrawal threshold ([2]; ipsilateral paw, 3 mg/kg orally twice daily for 7 days from day of surgery, day 2 of treatment): 76.7 ± 3.1 g
Paw withdrawal threshold ([2]; ipsilateral paw, 3 mg/kg orally twice daily for 7 days from day of surgery, day 3 of treatment): 78.3 ± 2.5 g
Paw withdrawal threshold ([2]; ipsilateral paw, 3 mg/kg orally twice daily for 7 days from day of surgery, day 4 of treatment): 83.3 ± 2.8 g
Paw withdrawal threshold ([2]; ipsilateral paw, 3 mg/kg orally twice daily for 7 days from day of surgery, day 5 of treatment): 83.3 ± 5.7 g
Paw withdrawal threshold ([2]; ipsilateral paw, 3 mg/kg orally twice daily for 7 days from day of surgery, day 7 of treatment): 86.7 ± 4.8 g
Paw withdrawal threshold ([2]; ipsilateral paw, 3 mg/kg orally twice daily for 7 days from day of surgery, day 10 (3 days after end of dosing)): 90.0 ± 4.7 g
Paw withdrawal threshold ([2]; ipsilateral paw, 3 mg/kg orally twice daily for 7 days from day of surgery, pre-surgery (baseline)): 100.8 ± 2.4 g
Paw withdrawal threshold ([2]; ipsilateral paw, 30 mg/kg orally twice daily for 7 days from day of surgery, day 1 of treatment): 78.3 ± 2.8 g
Paw withdrawal threshold ([2]; ipsilateral paw, 30 mg/kg orally twice daily for 7 days from day of surgery, day 2 of treatment): 80.8 ± 4.0 g
Paw withdrawal threshold ([2]; ipsilateral paw, 30 mg/kg orally twice daily for 7 days from day of surgery, day 3 of treatment): 83.3 ± 4.9 g
Paw withdrawal threshold ([2]; ipsilateral paw, 30 mg/kg orally twice daily for 7 days from day of surgery, day 4 of treatment): 85.8 ± 4.4 g
Paw withdrawal threshold ([2]; ipsilateral paw, 30 mg/kg orally twice daily for 7 days from day of surgery, day 5 of treatment): 83.2 ± 3.1 g
Paw withdrawal threshold ([2]; ipsilateral paw, 30 mg/kg orally twice daily for 7 days from day of surgery, day 7 of treatment): 82.0 ± 5.8 g
Paw withdrawal threshold ([2]; ipsilateral paw, 30 mg/kg orally twice daily for 7 days from day of surgery, day 10 (3 days after end of dosing)): 86.0 ± 4.0 g
Paw withdrawal threshold ([2]; ipsilateral paw, 30 mg/kg orally twice daily for 7 days from day of surgery, pre-surgery (baseline)): 97.5 ± 2.1 g
withdrawal thresholds after repeated dosing ([2]; ipsilateral paw, orally twice daily for 7 days from day of surgery, vehicle approximately 60 g): 80 to 90 g
